The text below walks through data of ChEMBL document CHEMBL1144517, “Structural requirement of chalcones for the inhibitory activity of interleukin-5” (Bioorg Med Chem, 2007).

The term Inhibition denotes the drop in the measured response relative to a control, in per cent. One may read the IC50 as the concentration that gives 50% inhibition.

A value given as a limit tells only on which side of the number the result lay.

Assay [1] in a line: Inhibition of IL5 in mouse Y16 cells. In kind it is functional. Also noted: concentration or dose not given beside the values.
Assay [2] in a line: Inhibition of IL5 in mouse Y16 cells […]. In kind it is functional, cell-based.

Regarding `O=C(/C=C/c1ccc(O)cc1)c1ccccc1O`, in assay [1], the Inhibition came out at 50%. The IC50 in assay [2] came out at 48.2 µM.
With `CCc1ccc(/C=C/C(=O)c2c(O)cccc2OCC2CCCCC2)cc1`, the Inhibition in assay [1] is given as 82.3%. Besides, half-maximal inhibition in assay [2] (IC50) was put at 27.9 µM.
For `O=C(/C=C/c1ccc(CO)cc1)c1c(O)cccc1OCC1CCCCC1`, in that order: 99.3% and 6.4 µM.
For `O=Cc1ccc(/C=C/C(=O)c2c(O)cccc2OCC2CCCCC2)cc1`, in that order: 99.8% and 4.5 µM.
For `O=C(O)c1cccc(/C=C/C(=O)c2c(O)cccc2OCC2CCCCC2)c1`, in that order: 98.1% and 14.1 µM.
`O=C(O)c1ccccc1/C=C/C(=O)c1c(O)cccc1OCC1CCCCC1`: in assay [1], the Inhibition was -18.9%. This compound returned an IC50 in assay [2] of more than 50 µM.
In the case of `COCOc1ccc(/C=C/C(=O)c2c(O)cccc2OCc2ccccc2)cc1`, in assay [1], the Inhibition is listed as 47.8%. Further, the IC50 in assay [2] was more than 50 µM.
With `O=C(/C=C/c1ccc(O)cc1)c1ccc(OCC2CCCCC2)cc1O`, the Inhibition in assay [1] is given as 59.7%. In assay [2], this compound gave an IC50 of 21.4 µM.
For `O=C(O)c1ccc(/C=C/C(=O)c2c(O)cccc2OCC2CCCCC2)cc1`, in that order: 100% and 9.4 µM.
For `Nc1ccc(/C=C/C(=O)c2c(O)cccc2OCC2CCCCC2)cc1`, in that order: 16.4% and more than 50 µM.
In the case of `O=C(O)c1ccc(/C=C/C(=O)c2ccccc2O)cc1`, the Inhibition in assay [1] is recorded as -18.7%. Also, the IC50 in assay [2] is more than 50 µM.
For `O=C(/C=C/c1ccccc1)c1c(O)cccc1OCC1CCCCC1`, in that order: 99.6% and 14.3 µM.
For `COC(=O)c1ccc(/C=C/C(=O)c2c(O)cccc2OCC2CCCCC2)cc1`, in that order: 98.6% and 3.9 µM.
Consider `NS(=O)(=O)c1ccc(/C=C/C(=O)c2c(O)cccc2OCc2ccccc2)cc1`, for which the Inhibition in assay [1] came to 99.5%. In assay [2], this compound came in with an IC50 of 7 µM.
Consider `O=C(/C=C/c1ccc(O)cc1)c1c(O)cccc1OCC1CCCCC1`, for which the Inhibition in assay [1] is 99%. For the same compound, in assay [2], the IC50 amounted to 12.6 µM.
For `O=C(O)c1ccc(CCC(=O)c2c(O)cccc2OCC2CCCCC2)cc1`, in that order: 15.6% and more than 50 µM.
Turning to `O=C(/C=C/c1ccc(O)cc1)c1c(O)cccc1OCc1ccccc1`, the Inhibition in assay [1] was 78.8%. Also, half-maximal inhibition in assay [2] (IC50) required 25.3 µM.
Regarding `O=C(O)c1ccc(/C=C/C(=O)c2ccc(OCC3CCCCC3)cc2O)cc1`, in assay [1], the Inhibition is recorded as 100%. For the same compound, the IC50 in assay [2] was found to be 10.8 µM.
`NS(=O)(=O)c1ccc(/C=C/C(=O)c2c(O)cccc2OCC2CCCCC2)cc1`: the Inhibition in assay [1] is recorded as 99.5%. In assay [2], this compound gave an IC50 of 1.8 µM.
Turning to `CC(=O)Nc1ccc(/C=C/C(=O)c2c(O)cccc2OCC2CCCCC2)cc1`, the Inhibition in assay [1] is given as 99.2%. The IC50 in assay [2] was 6.4 µM.
For `O=C(/C=C/c1ccc(Cl)cc1)c1c(O)cccc1OCC1CCCCC1`, the Inhibition in assay [1] came to 98.8%. In assay [2], this compound came in with an IC50 of 7.1 µM.
As for `O=C(/C=C/c1ccc(O)cc1)c1ccc(OCc2ccccc2)cc1O`, the Inhibition in assay [1] was determined as 77.6%. The compound also gave an IC50 in assay [2] of 28.8 µM.
For `O=C(O)c1ccc(/C=C/C(=O)c2ccc(OCc3ccccc3)cc2O)cc1`, in that order: 100% and 14.2 µM.
For `O=C(O)c1ccc(/C=C/C(=O)c2c(O)cccc2OCc2ccccc2)cc1`, in that order: 100% and 10.2 µM.
Turning to `O=C(O)c1ccc(/C=C/C(=O)c2ccccc2OCc2ccccc2)cc1`, the Inhibition in assay [1] came out at 15%. The IC50 in assay [2] is more than 50 µM.
For `COCOc1ccc(/C=C/C(=O)c2c(O)cccc2OCC2CCCCC2)cc1`, in that order: 13% and more than 50 µM.
